Drawing on patent US20160145247A1, “Aminomethyl-Biaryl Derivatives Complement Factor D inhibitors and uses thereof” (NOVARTIS AG, priority 2013, published 2016), this text covers IC50 for 31 molecules.

By IC50 is commonly meant the point on the concentration scale where inhibition reaches its midpoint. Low readings indicate greater potency, high ones weaker potency.

T1 sequence (P00746 26-253): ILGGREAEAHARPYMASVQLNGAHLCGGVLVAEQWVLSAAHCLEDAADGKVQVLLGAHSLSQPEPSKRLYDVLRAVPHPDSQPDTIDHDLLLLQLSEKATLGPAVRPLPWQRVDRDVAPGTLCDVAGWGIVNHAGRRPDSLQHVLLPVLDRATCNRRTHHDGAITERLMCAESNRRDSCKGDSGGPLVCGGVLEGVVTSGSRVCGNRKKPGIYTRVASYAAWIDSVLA

The assay addresses T1, factor D (Homo sapiens, UniProt P00746).
T1 construct: made in house; host or cells: E. coli
The experiment in a line: factor D inhibition assay of Biological Example 2. The assay is classed as biochemical.
In the case of `Cc1cc(Nc2cc(C(=O)Nc3ccccc3CC(=O)O)cc(-c3cc(F)cc(CN)c3)c2)[nH]n1` [Example 79-H], inhibition was half-maximal at 17 nM (IC50). This counts as double-digit nanomolar.
Molecule `C[C@H](N)c1cccc(-c2cc(COc3ccccc3CC(=O)O)cc(OCc3nccs3)c2)c1F` [Example 214-N] came in with an IC50 of 5 nM.
The molecule `Cc1ccc(COc2ccccc2CC(=O)O)cc1-c1cccc([C@@H](C)N)c1` [Example 116-M] gave an IC50 of 1230 nM.
Take `C[C@@H](N)c1cccc(-c2cccc(COc3ccccc3CC(=O)O)c2F)c1` [Example 125, (R)-2-(2-((3′-(1-Aminoethyl)-2-fluoro-[1,1′-biphenyl]-3-yl)methoxy)phenyl)acetic acid]: it took 4450 nM to reach half-maximal inhibition (IC50).
The molecule `Cc1ccc(-c2cccc([C@H](C)N)c2F)cc1COc1ccccc1CC(=O)O` [Example 274, (S)-2-(2-((3′-(1-aminoethyl)-2′-fluoro-4-methyl-[1,1′-biphenyl]-3-yl)methoxy)phenyl)acetic acid] had an IC50 of 340 nM.
Consider `CC(=O)Nc1cc(C(=O)Nc2ccccc2CC(=O)O)cc(-c2cccc(CN)c2)c1` [Example 5, 2-(2-(5-Acetamido-3′-(aminomethyl)-[1,1′-biphenyl]-3-ylcarboxamido)phenyl)acetic acid], for which the midpoint of inhibition, the IC50, lay at 45 nM.
As to `NC(=O)Cc1ccccc1OCc1cccc(-c2cccc([C@H](N)CO)c2)c1` [Example 146-C, (S)-2-(2-((3′-(1-Amino-2-hydroxyethyl)-[1,1′-biphenyl]-3-yl)methoxy)phenyl)acetamide], the IC50 was 18400 nM.
As for `NCc1cc(F)cc(-c2cccc(C(=O)Nc3c(Cl)cccc3CC(=O)O)n2)c1` [Example 21-N], the figure is 138 nM; as for `COC[C@@H](N)c1cccc(-c2ccnc(COc3ccccc3CC(=O)O)c2)c1` [Example 184, (S)-2-(2-((4-(3-(1-amino-2-methoxyethyl)phenyl)pyridin-2-yl)methoxy)phenyl)acetic acid], 436 nM.
As for `NCc1cc(F)cc(-c2cccc(C(=O)Nc3cccc(Br)c3CC(=O)O)c2)c1` [Example 21-G], the figure is 7680 nM; as for `NCc1cccc(-c2cc(COc3ccccc3CC(=O)O)cc(OC[C@H]3CCCO3)c2)n1` [Example 138-M], 5 nM.
`C[C@@H](N)c1cccc(-c2cc(CCc3ccn(C)n3)cc(COc3ccccc3CC(=O)O)c2)c1F` [Example 218-I, (R)-2-(2-((3′-(1-aminoethyl)-2′-fluoro-5-(2-(1-methyl-1H-pyrazol-3-yl)ethyl)-[1,1′-biphenyl]-3-yl)methoxy)phenyl)acetic acid] registered an IC50 of 10 nM.
As to `COCCOc1cc(C(=O)Nc2ccccc2CC(=O)O)cc(-c2cc(F)cc(CN)c2)c1` [Example 73-C, 2-(2-(3′-(Aminomethyl)-5′-fluoro-5-(2-methoxyethoxy)-[1,1′-biphenyl]-3-ylcarboxamido)phenyl)acetic acid], the IC50 was 22 nM.
`CCOC(=O)Cc1ccccc1OCc1cc(NC[C@H]2CCCO2)cc(-c2cccc([C@@H](C)N)c2F)c1` [Example 249, Ethyl 2-(2-((3′-((R)-1-aminoethyl)-2′-fluoro-5-((((R)-tetrahydrofuran-2-yl)methyl)amino)-[1,1′-biphenyl]-3-yl)methoxy)phenyl)acetate] came in with an IC50 of 26900 nM. This IC50 lies about 1200-fold higher than the previous one.
As for `C[C@@H](N)c1cccc(-c2cc(CCC3CCCN3C)cc(COc3ccccc3CC(=O)O)c2)c1F` (stereo partly drawn) [Example 240-B, 2-(2-((3′-((R)-1-aminoethyl)-2′-fluoro-5-(2-(1-methylpyrrolidin-2-yl)ethyl)-[1,1′-biphenyl]-3-yl)methoxy)phenyl)acetic acid], the figure is 110 nM.
The molecule `C[C@@H](N)c1cccc(-c2cc(COc3ccccc3CC(=O)O)cc(-c3cnn(C)c3)c2)c1F` [Example 230, (R)-2-(2-((3′-(1-aminoethyl)-2′-fluoro-5-(1-methyl-1H-pyrazol-4-yl)-[1,1′-biphenyl]-3-yl)methoxy)phenyl)acetic acid] registered an IC50 of 3 nM.
`CCc1ccc(NC(=O)c2cccc(-c3cc(F)cc(CN)c3)n2)c(CC(=O)O)c1` [Example 21-L] yielded an IC50 of 105 nM.
`CC(O)c1cc(COc2ccccc2CC(=O)O)cc(-c2cccc([C@H](N)CO)c2)c1` (single isomer, unassigned) [116-E b) (tr = 3.8 min)]: the midpoint of inhibition, the IC50, lay at 11 nM.
Molecule `N[C@H](CCO)c1cccc(-c2cccc(COc3ccccc3CC(=O)O)c2)n1` [Example 190-H] displayed an IC50 of 1120 nM.
Take `CCOC(=O)Cc1ccccc1NC(=O)c1cc(NC(C)=O)cc(-c2cc(F)cc(CN)c2)c1` [Example 67-C, Ethyl 2-(2-(5-acetamido-3′-(aminomethyl)-5′-fluoro-[1,1′-biphenyl]-3-ylcarboxamido)phenyl)acetate]: the IC50 stood at 2930 nM.
Regarding `COC(C)c1cc(COc2ccccc2CC(=O)O)cc(-c2cccc([C@H](N)CF)c2)c1` (mixture of isomers) [Example 121-C, 2-(2-((3′-((S)-1-Amino-2-fluoroethyl)-5-(1-methoxyethyl)-[1,1′-biphenyl]-3-yl)methoxy)phenyl)acetic acid], the IC50 is 380 nM. This IC50 lies about 7.7-fold lower than the previous one.
The result for `C[C@@H](N)c1cccc(-c2cc(OC[C@@H]3CCCO3)cc(C(=O)Nc3ccccc3CC(=O)O)c2)c1` [Example 80-C, 2-(2-(3′-((R)-1-Aminoethyl)-5-(((S)-tetrahydrofuran-2-yl)methoxy)-[1,1′-biphenyl]-3-ylcarboxamido)phenyl)acetic acid] reads 143 nM; that for `COCc1cc(COc2ccccc2CC(=O)O)cc(-c2cccc([C@H](C)N)c2F)c1` [Example 120-I], 25 nM; that for `C[C@@H](N)c1cccc(-c2cc(CNc3ccn(C)n3)cc(COc3ccccc3CC(=O)O)c2)c1F` [Example 216-AF], 16 nM.
The molecule `CCOc1cc(COc2ccccc2CC(=O)O)cc(-c2cccc(C(N)CF)c2F)c1` (stereo not shown) [Example 258-C, 2-(2-((3′-(1-amino-2-fluoroethyl)-5-ethoxy-2′-fluoro-[1,1′-biphenyl]-3-yl)methoxy)phenyl)acetic acid] displayed an IC50 of 11 nM.
`C[C@@H](N)c1cccc(-c2cc(COc3ccccc3CC(=O)O)cc(C(O)C(F)(F)F)c2)c1` (mixture of isomers) [116-H a), 2-(2-((3′-((R)-1-aminoethyl)-5-(2,2,2-trifluoro-1-hydroxyethyl)-[1,1′-biphenyl]-3-yl)methoxy)phenyl)acetic acid]: the IC50 turned out to be 1 nM.
Consider `N[C@H](CO)c1cccc(-c2cc(COc3ccccc3CC(=O)O)c(F)c(NCC3CCCO3)c2)c1` (stereo partly drawn) [155 b), 2-(2-((3′-((S)-1-Amino-2-hydroxyethyl)-4-fluoro-5-(((tetrahydrofuran-2-yl)methyl)amino)-[1,1′-biphenyl]-3-yl)methoxy)phenyl)acetic acid], for which inhibition was half-maximal at 4 nM (IC50).
The result for `NCc1cccc(-c2cccc(COc3ccccc3C(NC(=O)C3CC3c3ccccc3)C(=O)O)c2)c1` (single isomer, unassigned) [Example 297-B, 2-(2-((3′-(aminomethyl)-[1,1′-biphenyl]-3-yl)methoxy)phenyl)-2-(2-phenylcyclopropanecarboxamido)acetic acid] reads 6 nM; that for `NCc1cccc(-c2cc(COc3ccccc3CC(=O)O)cc(-c3cc4ccccc4[nH]3)c2)c1` [Example 209-A], 3 nM.
As for `CCOCc1cc(COc2ccccc2CC(=O)O)cc(-c2cccc([C@@H](C)N)c2)c1` [Example 120-R], the figure is 50 nM.
As for `NCc1cccc(-c2cccc(COc3cc(C(N)=O)ccc3CC(=O)O)c2)c1` [Example 294-C], the figure is 10 nM.
